Source: PMC11808397, “Development of selective nanomolar cyclic peptide ligands as GBA1 enzyme stabilisers” (RSC Chemical Biology, 2025)
Positions of bridges follow the written chain, without caps; N, C: chain ends. Non-standard residues stand in square brackets, D forms with d. Residues, ends and D or L forms follow the SMILES beside them.

Test: Intrinsic stability of cyclic peptides in plasma
Format: in vitro ADME
Settings: 0.1 μM in human plasma, 2 h at 37°C, then rhGBA1 10 nM 30 min, 4-MU activity read-out; n=3, technical duplicates
Description: Specifically, high concentrations of all peptides (10–1 μM) led to enzyme binding but also GBA1 inhibition after short incubations (0 to 30 minutes). […] To discard potential degradation of D8 and D12 during plasma experiments, the peptides were incubated in plasma at 0.1 μM for 2 hours, followed by the addition of rhGBA1 to measure its activity. This was compared to controls where D8 and D12 were added to plasma and directly tested for GBA1 activity.
Selective Cyclic Peptide Ligands as GBA1 Stabilizers Katzy et al.
Figure S10. Cerezyme (10 nM) stability in McIlvaine buffer pH 5.2 or in plasma of a healthy individual. GBA1 activity measured in n=3 replicates, in technical duplicates.
Figure S11. Intrinsic compounds stability of cyclic peptides D8 and D12 (0.1 µM) in plasma. rhGBA1 (10 nM) was added to compounds pre-incubated in plasma for 2h at 37°C or readily dissolved in DMSO, and incubated for 30 min, after which 4-MU activity was measured. Error ranges depict standard deviations from n=3 replicates, measured in technical duplicates.
Table S1. IC50 values for GBA1 inhibition in fibroblast lysates. Cells were treated with the peptides at increasing concentrations for 16 h, washed with PBS and homogenized. Reported values are mean ± standard deviation from 3 technical triplicates. N.D.: not determined.
Peptide GBA1 in fibroblast lysates
(1 picture or pasted object on this page, not shown here)

SMILES | peptide stability in plasma (inhibitory activity after pre-incubation)
CC(C)C[C@H](NC(=O)[C@@H](NC(=O)[C@H](CCCNC(=N)N)NC(=O)[C@@H]1CSCC(=O)N[C@H](Cc2ccc(O)cc2)C(=O)N[C@@H]([C@@H](C)O)C(=O)N2CCC[C@H]2C(=O)NCC(=O)N[C@@H](Cc2ccc(O)cc2)C(=O)N[C@@H](C(C)C)C(=O)N[C@@H](Cc2ccc(O)cc2)C(=O)N1)C(C)C)C(=O)N[C@@H](CCCCN)C(=O)N[C@@H](Cc1ccc(O)cc1)C(=O)N[C@@H](CS)C(N)=O [D8] ({CH2CO}-[dY]TPGYVYCRVLKYC-NH2; thioether N-8) | retained their inhibitory activity against rhGBA1
CC(C)C[C@@H]1NC(=O)CNC(=O)[C@H](CC(C)C)NC(=O)[C@@H](Cc2ccc(O)cc2)NC(=O)CSC[C@@H](C(N)=O)NC(=O)[C@H](CO)NC(=O)[C@H](CCCCN)NC(=O)[C@H](CC(C)C)NC(=O)[C@H](Cc2ccccc2)NC(=O)[C@H](CCCNC(=N)N)NC(=O)[C@H](Cc2ccc(O)cc2)NC(=O)[C@H](Cc2c[nH]c3ccccc23)NC1=O [D12] ({CH2CO}-[dY]LGLWYRFLKSC-NH2; thioether N-12) | retained their inhibitory activity against rhGBA1
